Measured values as given in PubChem BioAssay (NCI).
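Five compound concentrations were applied to cells in 96-well plates for 48 hours; endpoints were derived by simple linear interpolation of the resulting dose-response curve. GI50 = concentration required for 50% inhibition of growth. At the TGI there is no net growth.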

Experiments:
Test in all cases: NCI-60 cell line screen, 48 h
OVCAR-4 ovarian = tested on: OVCAR-4 ovarian
KM12 colon = tested on: KM12 colon
OVCAR-5 ovarian = tested on: OVCAR-5 ovarian
NCI/ADR-RES ovarian = tested on: NCI/ADR-RES ovarian
RXF 393 renal = tested on: RXF 393 renal
HCT-116 colon = tested on: HCT-116 colon
M14 melanoma = tested on: M14 melanoma
MOLT-4 leukemia = tested on: MOLT-4 leukemia
RPMI-8226 leukemia = tested on: RPMI-8226 leukemia
OVCAR-8 ovarian = tested on: OVCAR-8 ovarian
SNB-19 CNS = tested on: SNB-19 CNS
ACHN renal = tested on: ACHN renal
SK-OV-3 ovarian = tested on: SK-OV-3 ovarian
MDA-MB-435 = tested on: MDA-MB-435
SR leukemia = tested on: SR leukemia
IGROV1 ovarian = tested on: IGROV1 ovarian
UACC-257 melanoma = tested on: UACC-257 melanoma
MCF7 breast = tested on: MCF7 breast
NCI-H522 lung = tested on: NCI-H522 lung
TK-10 renal = tested on: TK-10 renal
786-0 renal = tested on: 786-0 renal
SNB-75 CNS = tested on: SNB-75 CNS
SF-295 CNS = tested on: SF-295 CNS
K-562 leukemia = tested on: K-562 leukemia
MDA-MB-231 breast = tested on: MDA-MB-231 breast
HCC-2998 colon = tested on: HCC-2998 colon
BT-549 breast = tested on: BT-549 breast
OVCAR-3 ovarian = tested on: OVCAR-3 ovarian
T-47D breast = tested on: T-47D breast
SK-MEL-2 melanoma = tested on: SK-MEL-2 melanoma
SN12C renal = tested on: SN12C renal
NCI-H226 lung = tested on: NCI-H226 lung
SF-539 CNS = tested on: SF-539 CNS
SW-620 colon = tested on: SW-620 colon
EKVX NSCLC = tested on: EKVX NSCLC
CCRF-CEM leukemia = tested on: CCRF-CEM leukemia
LOX IMVI melanoma = tested on: LOX IMVI melanoma
UO-31 renal = tested on: UO-31 renal
HOP-92 NSCLC = tested on: HOP-92 NSCLC
PC-3 prostate = tested on: PC-3 prostate
SK-MEL-5 melanoma = tested on: SK-MEL-5 melanoma
SF-268 CNS = tested on: SF-268 CNS
A498 renal = tested on: A498 renal
NCI-H23 lung = tested on: NCI-H23 lung
MALME-3M melanoma = tested on: MALME-3M melanoma
HS 578T breast = tested on: HS 578T breast
DU-145 prostate = tested on: DU-145 prostate
NCI-H460 lung = tested on: NCI-H460 lung
HT29 colon = tested on: HT29 colon
CAKI-1 renal = tested on: CAKI-1 renal
SK-MEL-28 melanoma = tested on: SK-MEL-28 melanoma
UACC-62 melanoma = tested on: UACC-62 melanoma
HCT-15 colon = tested on: HCT-15 colon
A549 NSCLC = tested on: A549 NSCLC
HL-60(TB) leukemia = tested on: HL-60(TB) leukemia

CCCCCC/C=C\CCCCCCCCCc1cc(O)cc(OC)c1O
GI50 (OVCAR-4 ovarian): 389 nM | TGI (OVCAR-4 ovarian): 1690 nM | GI50 (KM12 colon): 388 nM | TGI (KM12 colon): 2300 nM | GI50 (OVCAR-5 ovarian): 402 nM | TGI (OVCAR-5 ovarian): 2410 nM | GI50 (NCI/ADR-RES ovarian): 311 nM | TGI (NCI/ADR-RES ovarian): 1270 nM | GI50 (RXF 393 renal): 320 nM | TGI (RXF 393 renal): 1380 nM | GI50 (HCT-116 colon): 330 nM | TGI (HCT-116 colon): 1250 nM | GI50 (M14 melanoma): 403 nM | TGI (M14 melanoma): 3.65 µM | GI50 (MOLT-4 leukemia): 333 nM | TGI (MOLT-4 leukemia): 1860 nM | GI50 (RPMI-8226 leukemia): 219 nM | GI50 (OVCAR-8 ovarian): 307 nM | TGI (OVCAR-8 ovarian): 6.5 µM | GI50 (SNB-19 CNS): 347 nM | TGI (SNB-19 CNS): 10.3 µM | GI50 (ACHN renal): 318 nM | TGI (ACHN renal): 1210 nM | GI50 (SK-OV-3 ovarian): 402 nM | TGI (SK-OV-3 ovarian): 11.6 µM | GI50 (MDA-MB-435): 363 nM | TGI (MDA-MB-435): 1960 nM | GI50 (SR leukemia): 344 nM | TGI (SR leukemia): 3.26 µM | GI50 (IGROV1 ovarian): 433 nM | TGI (IGROV1 ovarian): 1640 nM | GI50 (UACC-257 melanoma): 474 nM | TGI (UACC-257 melanoma): 2920 nM | GI50 (MCF7 breast): 292 nM | TGI (MCF7 breast): 2490 nM | GI50 (NCI-H522 lung): 321 nM | TGI (NCI-H522 lung): 1220 nM | GI50 (TK-10 renal): 664 nM | TGI (TK-10 renal): 2650 nM | GI50 (786-0 renal): 316 nM | TGI (786-0 renal): 1570 nM | GI50 (SNB-75 CNS): 317 nM | TGI (SNB-75 CNS): 1440 nM | GI50 (SF-295 CNS): 304 nM | TGI (SF-295 CNS): 1370 nM | GI50 (K-562 leukemia): 298 nM | TGI (K-562 leukemia): 2080 nM | GI50 (MDA-MB-231 breast): 308 nM | TGI (MDA-MB-231 breast): 978 nM | GI50 (HCC-2998 colon): 633 nM | TGI (HCC-2998 colon): 4.34 µM | GI50 (BT-549 breast): 375 nM | TGI (BT-549 breast): 1450 nM | GI50 (OVCAR-3 ovarian): 401 nM | TGI (OVCAR-3 ovarian): 1430 nM | GI50 (T-47D breast): 349 nM | TGI (T-47D breast): 1930 nM | GI50 (SK-MEL-2 melanoma): 494 nM | TGI (SK-MEL-2 melanoma): 2410 nM | GI50 (SN12C renal): 310 nM | TGI (SN12C renal): 1500 nM | GI50 (NCI-H226 lung): 370 nM | TGI (NCI-H226 lung): 1490 nM | GI50 (SF-539 CNS): 377 nM | TGI (SF-539 CNS): 1510 nM | GI50 (SW-620 colon): 371 nM | TGI (SW-620 colon): 1810 nM | GI50 (EKVX NSCLC): 335 nM | TGI (EKVX NSCLC): 1740 nM | GI50 (CCRF-CEM leukemia): 219 nM | TGI (CCRF-CEM leukemia): 1290 nM | GI50 (LOX IMVI melanoma): 339 nM | TGI (LOX IMVI melanoma): 1210 nM | GI50 (UO-31 renal): 321 nM | TGI (UO-31 renal): 1220 nM | GI50 (HOP-92 NSCLC): 234 nM | TGI (HOP-92 NSCLC): 767 nM | GI50 (PC-3 prostate): 308 nM | TGI (PC-3 prostate): 1540 nM | GI50 (SK-MEL-5 melanoma): 329 nM | TGI (SK-MEL-5 melanoma): 1180 nM | GI50 (SF-268 CNS): 441 nM | TGI (SF-268 CNS): 1690 nM | GI50 (A498 renal): 330 nM | TGI (A498 renal): 2070 nM | GI50 (NCI-H23 lung): 348 nM | TGI (NCI-H23 lung): 1290 nM | GI50 (MALME-3M melanoma): 444 nM | TGI (MALME-3M melanoma): 2140 nM | GI50 (HS 578T breast): 599 nM | TGI (HS 578T breast): 5.18 µM | GI50 (DU-145 prostate): 575 nM | TGI (DU-145 prostate): 15.2 µM | GI50 (NCI-H460 lung): 323 nM | TGI (NCI-H460 lung): 10.1 µM | GI50 (HT29 colon): 353 nM | TGI (HT29 colon): 6.93 µM | GI50 (CAKI-1 renal): 497 nM | TGI (CAKI-1 renal): 1820 nM | GI50 (SK-MEL-28 melanoma): 653 nM | TGI (SK-MEL-28 melanoma): 2340 nM | GI50 (UACC-62 melanoma): 396 nM | TGI (UACC-62 melanoma): 1950 nM | GI50 (HCT-15 colon): 285 nM | TGI (HCT-15 colon): 1320 nM | GI50 (A549 NSCLC): 406 nM | TGI (A549 NSCLC): 14.6 µM | GI50 (HL-60(TB) leukemia): 272 nM | TGI (HL-60(TB) leukemia): 717 nM
